{
  "source": "paper PMC9549030",
  "about": "“Structural basis for specific inhibition of the deubiquitinase UCHL1” (Nature Communications, 2022)",
  "key": {"UCHL1 [1]": {"molecular_target": "T1, UCHL1 (Homo sapiens, UniProt P09936)", "T1 sequence (P09936 1-223)": "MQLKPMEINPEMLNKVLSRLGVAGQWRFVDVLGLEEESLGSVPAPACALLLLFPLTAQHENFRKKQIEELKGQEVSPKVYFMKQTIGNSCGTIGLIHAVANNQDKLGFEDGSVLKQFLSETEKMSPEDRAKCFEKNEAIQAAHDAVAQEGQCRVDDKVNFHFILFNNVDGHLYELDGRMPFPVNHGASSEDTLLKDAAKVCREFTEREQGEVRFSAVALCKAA", "assay": "Ub-Rhodamine (Ubiquitin rhodamine cleavage) assay", "type": "biochemical", "conditions": "for normalized UCHL1 activity: independent experiments"}, "UCHL3 L168F [2]": {"molecular_target": "T2, UCHL3 L168F (Homo sapiens, UniProt P15374, L168F)", "T2 sequence (P15374 1-230 L168F)": "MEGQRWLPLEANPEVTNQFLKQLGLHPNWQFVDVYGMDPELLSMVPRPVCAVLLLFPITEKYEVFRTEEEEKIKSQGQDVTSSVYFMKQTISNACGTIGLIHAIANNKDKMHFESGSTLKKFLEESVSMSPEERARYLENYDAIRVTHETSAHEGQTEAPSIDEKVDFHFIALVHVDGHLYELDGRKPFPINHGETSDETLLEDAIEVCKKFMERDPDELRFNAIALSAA", "assay": "Ub-Rhodamine (Ubiquitin rhodamine cleavage) assay", "type": "biochemical"}, "UCHL1 [3]": {"molecular_target": "T1, UCHL1", "assay": "Intact protein mass spectrometry", "type": "binding", "conditions": "compound 10 µM", "description": "(§1) Spectra were deconvoluted with ProMass (Enovatia)."}, "UCHL3": {"molecular_target": "T3, UCHL3 (Homo sapiens, UniProt P15374)", "T3 sequence (P15374 1-230)": "T2 sequence (P15374 1-230 L168F) with F168L", "assay": "Intact protein mass spectrometry", "type": "binding", "conditions": "enzyme 3 µM; compound 10 µM; 1 h", "description": "as §1"}, "UCHL3 A11I": {"molecular_target": "T4, UCHL3 A11I (Homo sapiens, UniProt P15374, A11I)", "T4 sequence (P15374 1-230 A11I)": "T2 sequence (P15374 1-230 L168F) with A11I, F168L", "assay": "Intact protein mass spectrometry", "type": "binding", "conditions": "enzyme 3 µM; compound 10 µM; 1 h", "description": "as §1"}, "UCHL3 L168F [4]": {"molecular_target": "T2, UCHL3 L168F", "assay": "Intact protein mass spectrometry", "type": "binding", "conditions": "enzyme 3 µM; compound 10 µM; 1 h", "description": "as §1"}, "DUBs in HEK293 lysate": {"system": "DUBs in HEK293 lysate", "assay": "Activity-based protein profiling in the lysate with Ub-VS competition", "type": "binding, human", "conditions": "1 µM, 1 h", "description": "Cells (4 × 10^6) were seeded in 10 cm dishes and grown to 90% confluency. The medium was aspirated, cells were washed with ice-cold PBS, treated with 600 µL ABP lysis buffer (1% (v/v) IGEPAL, 50 mM Tris, 150 mM NaCl, 5% glycerol, pH 8, cOmplete protease inhibitor cocktail), and incubated on ice for 15 min. The lysed cells were scrapped off the dish, cleared by centrifugation, and the protein concentration was determined via a Bradford assay. […] Each compound was diluted to a 2x concentration in PBS buffer from a 10 mM stock in DMSO (final concentration: 1 µM). Then each compound dilution or a DMSO dilution was mixed with cell lysate and incubated for one hour at room temperature. […] Samples were resolved by SDS-PAGE using a 4–12% Bis-Tris gel (Invitrogen, NuPAGE) with MES SDS running buffer for 50 min at 180 V. Fluorescence was read out using the Alexa564 (λex/em 520–545/577–613 nm, for TAMRA) and Alexa680 (λex/em 650–675/700–730 nm, for the PageRuler Prestained NIR Protein Ladder (Thermo Scientific)) channels on a ChemiDoc MP Imaging System (Bio-Rad)."}, "HEK293 cells [5]": {"system": "HEK293 cells", "assay": "Cellular activity-based protein profiling (in-gel fluorescence)", "type": "cell-based, human", "conditions": "0.1 and 1 µM; 24 h", "description": "Cells (7 × 10^5) were seeded in six-well plates and cultivated for 48 h. Cells were then incubated in fresh DMEM supplemented with compound or DMSO for 24 h. The cells were washed with ice-cold PBS and harvested in 200 µL ABP lysis buffer as described above. […] Samples were separated by SDS-PAGE and analyzed for fluorescent protein-compound conjugates as described above."}, "HEK293 cells [6]": {"system": "HEK293 cells", "assay": "Cell growth and viability assay (confluency, propidium iodide)", "type": "cell-based, human", "conditions": "up to 5 µM, up to 72 h", "description": "(§2) HEK293 cells (5 × 10^3/well) or U-87 MG cells (5.5 × 10^3/well) were seeded into 96-well dishes. The following day cells were treated with the compounds at varying concentrations and propidium iodide at 20 µg/mL. The plates were immediately transferred to the Incucyte S3. Bright-field and red fluorescent images were automatically captured at 1 or 2 h intervals for 72 h with 10x magnification. The confluency of cells and the number of PI-positive cells was determined using the Incucyte masking program."}, "U-87 MG cells": {"system": "U-87 MG cells", "assay": "Cell growth and viability assay (confluency, propidium iodide)", "type": "cell-based, human", "conditions": "up to 5 µM, up to 72 h", "description": "as §2"}, "[7]": {"conditions": "1 h, read-out: UCHL1 activity, data point mean"}},
  "note": "Numbering of substitutions follows the chain as printed. Several values for one entry are separate records, joined by “and”; a condition that tells them apart may be missing. Equal entries are not always repeated. Where two headings read alike, the source gives them in different places.",
  "data": [
    {"smiles": "C#CCCCNC(=O)c1ccc(-n2cnc(NC(=O)[C@H]3CCN(C#N)C3)c2)cc1", "note": "[GK13S]", "values": [
      {"measurement": "remaining activity at 0.000610352 µM", "setting": "UCHL1 [1]; [7]", "value": 98.8, "unit": "%"},
      {"measurement": "remaining activity at 0.0012207 µM", "setting": "UCHL1 [1]; [7]", "value": 96.5, "unit": "%"},
      {"measurement": "remaining activity at 0.00244141 µM", "setting": "UCHL1 [1]; [7]", "value": 95, "unit": "%"},
      {"measurement": "remaining activity at 0.00488281 µM", "setting": "UCHL1 [1]; [7]", "value": 91.2, "unit": "%"},
      {"measurement": "remaining activity at 0.00976562 µM", "setting": "UCHL1 [1]; [7]", "value": 85.3, "unit": "%"},
      {"measurement": "remaining activity at 0.0195312 µM", "setting": "UCHL1 [1]; [7]", "value": 76.8, "unit": "%"},
      {"measurement": "remaining activity at 0.0390625 µM", "setting": "UCHL1 [1]; [7]", "value": 65.7, "unit": "%"},
      {"measurement": "remaining activity at 0.078125 µM", "setting": "UCHL1 [1]; [7]", "value": 44.1, "unit": "%"},
      {"measurement": "remaining activity at 0.15625 µM", "setting": "UCHL1 [1]; [7]", "value": 23.2, "unit": "%"},
      {"measurement": "remaining activity at 0.3125 µM", "setting": "UCHL1 [1]; [7]", "value": 8.06, "unit": "%"},
      {"measurement": "remaining activity at 0.625 µM", "setting": "UCHL1 [1]; [7]", "value": 3.5, "unit": "%"},
      {"measurement": "remaining activity at 1.25 µM", "setting": "UCHL1 [1]; [7]", "value": 2.31, "unit": "%"},
      {"measurement": "remaining activity at 2.5 µM", "setting": "UCHL1 [1]; [7]", "value": 3.03, "unit": "%"},
      {"measurement": "remaining activity at 5 µM", "setting": "UCHL1 [1]; [7]", "value": 1.18, "unit": "%"},
      {"measurement": "remaining activity at 10 µM", "setting": "UCHL1 [1]; [7]", "value": 0.488, "unit": "%"},
      {"measurement": "IC50", "setting": "UCHL1 [1]; 1 h preincubation, mean ± SD of independent experiments, read-out: IC50 (UCHL1)", "value": 50, "unit": "nM"},
      {"measurement": "IC50", "setting": "UCHL1 [1]; Fig. 6b, catalytic domain, 1 h preincubation with GK13S, read-out: IC50 (UCHL1)", "value": "87 ± 8", "unit": "nM"},
      {"measurement": "normalized UCHL1 activity", "setting": "UCHL1 [1]; GK13S 0.610352 nM, 1 h preincubation", "value": "0.9506 and 0.9879 and 1.014 and 0.9975 and 0.9955"},
      {"measurement": "normalized UCHL1 activity", "setting": "UCHL1 [1]; GK13S 1.2207 nM, 1 h preincubation", "value": "0.9497 and 0.9646 and 1.019 and 1.0024 and 0.9988"},
      {"measurement": "normalized UCHL1 activity", "setting": "UCHL1 [1]; GK13S 2.44141 nM, 1 h preincubation", "value": "0.9185 and 0.9495 and 1.017 and 0.9974 and 0.9924"},
      {"measurement": "normalized UCHL1 activity", "setting": "UCHL1 [1]; GK13S 4.88281 nM, 1 h preincubation", "value": "0.8798 and 0.9115 and 1.0474 and 0.9893 and 0.9704"},
      {"measurement": "normalized UCHL1 activity", "setting": "UCHL1 [1]; GK13S 9.76562 nM, 1 h preincubation", "value": "0.8185 and 0.8529 and 0.9722 and 1.013 and 0.9579"},
      {"measurement": "normalized UCHL1 activity", "setting": "UCHL1 [1]; GK13S 19.5312 nM, 1 h preincubation", "value": "0.7093 and 0.7679 and 0.9238 and 0.9667 and 0.9242"},
      {"measurement": "normalized UCHL1 activity", "setting": "UCHL1 [1]; GK13S 39.0625 nM, 1 h preincubation", "value": "0.5709 and 0.6568 and 0.8808 and 0.9371 and 0.8799"},
      {"measurement": "IC50", "setting": "UCHL1 [1]; source data Fig. 3b, 1 h preincubation, read-out: Averaged IC50s from independent experiments (single experiments)", "value": "36 nM and 65 nM and 49 nM"},
      {"measurement": "IC50", "setting": "UCHL3 L168F [2]", "value": "33000 ± 11000", "unit": "nM"},
      {"measurement": "stoichiometry of covalent binding to UCHL1", "setting": "UCHL1 [3]; UCHL1 3 µM, 16 h", "value": "bound only once"},
      {"measurement": "protein species observed after compound treatment", "setting": "UCHL1 [3]; enzyme 3 µM, 1 h", "value": "UCHL1 + 1x GK13S"},
      {"measurement": "protein species observed after compound treatment", "setting": "UCHL3", "value": "free UCHL3"},
      {"measurement": "protein species observed after compound treatment", "setting": "UCHL3 A11I", "value": "free UCHL3 A11I"},
      {"measurement": "protein species observed after compound treatment", "setting": "UCHL3 L168F [4]", "value": "free UCHL3 L168F"},
      {"measurement": "DUB engagement (Ub-VS competitive labeling)", "setting": "DUBs in HEK293 lysate", "value": "Ubiquitin-probe competitive band of approx. 30 kDa"},
      {"measurement": "labeling of endogenous proteins in intact cells", "setting": "HEK293 cells [5]", "value": "strong signal for a band of ~30 kDa"},
      {"measurement": "growth arrest and apoptosis", "setting": "HEK293 cells [6]", "value": "neither GK13S nor GK16S showed growth arrest nor apoptosis"},
      {"measurement": "toxicity (cell growth and viability)", "setting": "U-87 MG cells", "value": "nontoxic"}
    ]}
  ]
}
